Measurements reported in US4115587A, “Fatty acid amides of norfenfluramine and compositions and methods thereof” (A. H. Robins Company, Inc., priority 1976, dated 1978).
Where two headings read alike, the source gives them in different places.

Key:
[1] = system: Serum Triglycerides and Cholesterol; assay: Triton-induced hyperlipidemia test (Table 1); assay type: in vivo, male Sprague-Dawley rats; settings: 140 mg/kg p.o.; for % Change Cholesterol / % Change Triglycerides: vs control; for Serum Cholesterol / Serum Triglycerides: ± SD
Description: Fasted, male Sprague-Dawley rats weighing 250-350 g were fed ad libitum a commercial lab chow with free access to water. The animals were fasted overnight and administered Triton-WR-1339 (produced by Ruger Chemical Company, Inc., Irvington, New Jersey) as described by Schurr et al.; Lipids 7 68(1972) except the procedure was modified to use the saphenous vein and divided doses of 70 mg/kg. The rats were anesthetized with sodium pentobarbital and terminally bled by heart puncture. Serum was stored at -20° C. until it was analyzed for total cholesterol and triglycerides. Comparison was also made with clofibrate.

[2] = Dietary-induced hyperlipemia test, basal semi-purified diet: liver weight, body weight, food consumption (Table 2); assay type: in vivo, male Sprague-Dawley rats; settings: .2% in food
Description: (§1) General feeding experiments were conducted on rats to determine the effect of the amides of this invention on serum and liver lipids of animals fed a basal diet and a basal diet supplemented with cholesterol. In addition, the effect of these drugs on serum lipoproteins was studied as well as their effect on body weight, gross feed efficiency, liver weight, appetite and energy utilization with respect to their metabolic size. Male, Sprague-Dawley rats weighing 150-175 g. were housed in cages with raised wire floors in a room kept at a temperature of 24°-26° C. with a 12-hour day and 12-hour night cycle, fed ad libitum a semipurified diet consisting by weight % composition: vitamin-free casein, 20; glucose, 63; hydrogenated coconut oil, 10; GBI Vitamin Fortification Mixture, Cat. #40060 obtained from General Biochemical Company of Chargrin Falls, Ohio, 1; modified salt mix of Williams and Briggs, Cat. #170911 obtained from General Biochemical Company, 4; and cellulose, 2; and watered. The modified salt mix provided the following amounts in grams of elements per Kg. of diet:
(§2) Diets were supplemented with 0.5% cholic acid, 1% cholesterol, and drug at the expense of glucose. The experimental period was 18-21 days with body weight and food measured at specified intervals. Animals were fasted overnight and terminally bled by cardiac puncture. Blood was anti-coagulated with ethylenediamine tetracetic acid and plasma was separated by centrifugation, and stored at -20° C. Livers were excised, weighed, and stored at -20° C. All samples remained at this temperature until they were analyzed for total lipids, total cholesterol, triglycerides and phospholipids. Gross feed efficiency together with the effect of metabolic size on food intake and the effect of drug on energy utilization were determined.
(§3) Results of testing the mixed amides of Example 5 and reference compounds in rats on a basal diet according to the foregoing procedure for dietary induced hyperlipemia are in Tables 2 and 3.

[3] = system: Serum and Liver Lipids; assay: Dietary-induced hyperlipemia test, basal semi-purified diet: serum and liver lipids (Table 3); assay type: in vivo, male Sprague-Dawley rats; settings: .2% in food, ± S.D.
Description: as §1, §2, §3

[4] = assay type: in vivo, male Sprague-Dawley rats; settings: cholesterol diet, .2% in food
Description: as §1, §2
(§4) Results of testing the mixed amides of Example 5 an reference compounds in rats on a basal diet with added cholesterol according to the foregoing procedure for dietary induced hyperlipemia are in Tables 4 and 5.

[5] = system: Serum and Liver Lipids; assay: Dietary-induced hyperlipemia test, basal diet with cholesterol: serum and liver lipids (Table 5); assay type: in vivo, male Sprague-Dawley rats; settings: .2% in food, ± S.D.
Description: as §1, §2, §4

[6] = system: Serum Lipoproteins; assay: Serum lipoproteins of rats fed semi-purified diet supplemented with cholesterol (Table 7); assay type: in vivo; settings: .2% in food
Description: as §1, §2
^a VLDL, very low density lipoproteins; LDL, low density lipoproteins
and HDL, high density lipoproteins as determined on a Beckman-Gilford

[7] = system: β-Sterol Synthesis, Liver; assay: β-Sterol synthesis, acetate-1-14C incorporation, liver (Table 8); assay type: in vivo, male Sprague-Dawley rats; settings: Liver; 140 mg/kg p.o.; ± S.D.
Description: (§5) The effect of the mixed amides of Example 5 and reference compounds on β Sterol synthesis was determined by a modified procedure of Hill and Dvornik Arch. Biochem. Biophys. 114 (1966), 88. Male Sprague-Dawley rates weighing 127-175 g. were freely provided a basal semi-purified diet and water. The rats were housed in cages with raised wire floors in a room kept at a temperature of 24°-26° C. with a 12-hour day-12-hour night cycle. The cycle was reversed so the night cycle corresponded to the working day to take advantage of the circadian rhythm that favors cholesterol synthesis. The test period was five days and 20 μCi sodium acetate-1-^14 C (Sp. act. 56 mCi/m mole) administered intraperitoneally. Animals were sacrificed under carbon dioxide and the distal 10 cm of the ileum as well as the median and left liver lobes excised and homogenized. Subsequently, the β Sterols were isolated as the digitonide and the radioactivity determined in a Packard Tricarb Liquid Scintillation Spectrometer Model 3385 using 0.5% 2,5 diphenyloxazole and 8% naphthalene in a solvent mixture of 40% toluene, 40% dioxane and 20% absolute ethanol. Data for the effect of the mixed amides of Example 5 on the synthesis of nonsaponifiable substances and β Sterols as determined by the Digitonide method are shown in Table 8. […] A prior art compound, α-methylbenzyllinoleamide at 140 mg/kg, p.o. had no effect on cholesterol synthesis in either tissue.

[8] = system: β-Sterol Synthesis, Ileum; assay: β-Sterol synthesis, acetate-1-14C incorporation, ileum (Table 8); assay type: in vivo, male Sprague-Dawley rats; settings: Ileum; 140 mg/kg p.o.; ± S.D.
Description: as §5

CCOC(=O)C(C)(C)Oc1ccc(Cl)cc1 [Clofibrate, ethyl p-chlorophenoxyisobutyrate]
% Change Cholesterol ([1]; Test Group I): -24.0% | % Change Triglycerides ([1]; Test Group I): -79% | Serum Cholesterol ([1]; Test Group I): 173.0 ± 54.0 mg/100 ml | Serum Triglycerides ([1]; Test Group I): 124.5 ± 7.8 mg/100 ml | % Change Cholesterol ([1]; Test Group II): -24% | Serum Cholesterol ([1]; Test Group II): 94.1 ± 13.6 mg/100 ml | % Change Triglycerides ([1]; Test Group III): -20% | Serum Cholesterol ([1]; Test Group III): 109.3 ± 24.4 mg/100 ml | Serum Triglycerides ([1]; Test Group III): 132.7 ± 64.5 mg/100 ml | % Change Cholesterol ([1]; Test Group IV): -24% | % Change Triglycerides ([1]; Test Group IV): -34% | Serum Cholesterol ([1]; Test Group IV): 213.0 ± 14.1 mg/100 ml | Serum Triglycerides ([1]; Test Group IV): 411.7 ± 118.0 mg/100 ml | Food Consumed [2]: 306 g | Gross Feed Efficiency ([2]; gross weight gain in grams/total food consumed in grams): .180 | Body wt, Final ([2]; ± S.D.): 210 ± 21 g | Liver wt per 100 g body wt. ([2]; ± S.D.): 4.4 ± .4 g | Liver wt, Total ([2]; ± S.D.): 9.2 ± .4 g | Liver Cholesterol [3]: 2.63 ± .09 mg/g | Liver Lipids, Total [3]: 51.21 ± 7.89 mg/g | Liver Triglycerides [3]: 1.78 ± .43 mg/g | Serum Cholesterol [3]: 89.83 ± 8.77 mg/100 ml | Serum Lipids, Total [3]: 143.70 ± 22.42 mg/100 ml | Serum Triglycerides [3]: 31.83 ± 7.08 mg/100 ml | Food Consumed [4]: 340 g | Gross Feed Efficiency ([4]; gross weight gain/total food consumed in grams): .215 | Body wt, Final ([4]; ± S.D.): 208 ± 16 g | Liver wt per 100 g body wt. ([4]; ± S.D.): 4.9 ± 1.2 g | Liver wt, Total ([4]; ± S.D.): 10.4 ± 2.6 g | Liver Triglycerides [5]: 7.83 ± 2.22 mg/g | Serum Cholesterol ([5]; p<.05 for Ex. 5): 235.00 ± 68.27 mg/100 ml | Liver Cholesterol ([5]; p<.05 for all): 14.17 ± 9.10 mg/g | Liver Lipids, Total ([5]; p<.05 for all): 93.83 ± 12.06 mg/g | Serum Lipids, Total ([5]; p<.05 for all): 430.33 ± 119.37 mg/100 ml | Serum Triglycerides ([5]; p<.05 for clofibrate): 126.50 ± 47.21 mg/100 ml | Albumin, Percentage Composition [6]: 22.63% | HDL, Percentage Composition [6]: 9.03% | LDL, Percentage Composition [6]: 42.56% | VLDL, Percentage Composition [6]: 25.76% | Acetate-1-14C incorporated, Digitonide [7]: 1.588 ± 1.216 n moles/g tissue | Acetate-1-14C incorporated, Non-saponifiable [7]: 2.943 ± 1.707 n moles/g tissue | Acetate-1-14C incorporated, Digitonide [8]: 6.098 ± .909 n moles/g tissue | Acetate-1-14C incorporated, Non-saponifiable [8]: 6.774 ± 1.447 n moles/g tissue

CCCCCCCC/C=C\CCCCCCCC(=O)NC(C)Cc1cccc(C(F)(F)F)c1 (stereo not drawn) [Ex.2, N-[1-methyl-2-(3-trifluoromethylphenyl)ethyl]octadec-9-enamide cis isomer]
% Change Cholesterol ([1]; Test Group IV): -39% | % Change Triglycerides ([1]; Test Group IV): -73% | Serum Cholesterol ([1]; Test Group IV): 173.3 ± 10.2 mg/100 ml | Serum Triglycerides ([1]; Test Group IV): 166.3 ± 37.2 mg/100 ml

CCCCCCCC/C=C/CCCCCCCC(=O)NC(C)Cc1cccc(C(F)(F)F)c1 (stereo not drawn) [Ex.3, N-[1-methyl-2-(3-trifluoromethylphenyl)ethyl]octadec-9-enamide trans isomer]
% Change Cholesterol ([1]; Test Group IV): -25% | % Change Triglycerides ([1]; Test Group IV): -58% | Serum Cholesterol ([1]; Test Group IV): 210.0 ± 47.8 mg/100 ml | Serum Triglycerides ([1]; Test Group IV): 260.0 ± 137.8 mg/100 ml
